Patent US5041567A, “Antibacterial monic acid derivatives” (Beecham Group plc, priority 1982, dated 1991)
In brackets after ≈: the same amount, converted by molar mass. Read-outs that look alike come from different tables or passages of the source.

Experiments:
M. suipneumoniae JF 435 = assay: MIC against mycoplasma in vitro; assay type: cell-based; settings: Mesomycoplasma hyopneumoniae, JF435, 144 h
M. suipneumoniae HK(2) = assay: MIC against mycoplasma in vitro; assay type: cell-based; settings: Mesomycoplasma hyopneumoniae, 144 h
[1] = test system: M. suipneumoniae J2206/183^b; assay: MIC against mycoplasma in vitro; assay type: cell-based; settings: Mesomycoplasma hyopneumoniae, 144 h
[2] = test system: M. suipneumoniae PW/C/210; assay: MIC against mycoplasma in vitro; assay type: cell-based; settings: Mesomycoplasma hyopneumoniae, 144 h
M. suipneumoniae LABER = assay: MIC against mycoplasma in vitro; assay type: cell-based; settings: Mesomycoplasma hyopneumoniae, 144 h
M. suipneumoniae UCD 1 = assay: MIC against mycoplasma in vitro; assay type: cell-based; settings: Mesomycoplasma hyopneumoniae, UCD1, 144 h
[3] = test system: M. suipneumoniae ATCC 25095; assay: MIC against mycoplasma in vitro; assay type: cell-based; settings: Mesomycoplasma hyopneumoniae, ATCC25095, 144 h
[4] = test system: M. suipneumoniae NCTC 10110; assay: MIC against mycoplasma in vitro; assay type: cell-based; settings: Mesomycoplasma hyopneumoniae, NCTC10110, 144 h
M. hyorhinis ATCC 23234 = assay: MIC against mycoplasma in vitro; assay type: cell-based; settings: Mesomycoplasma hyorhinis, ATCC23234, 144 h
M. hyorhinis ATCC 25021 = assay: MIC against mycoplasma in vitro; assay type: cell-based; settings: Mesomycoplasma hyorhinis, ATCC25021, 144 h
[5] = test system: M. hyosynoviae ATCC 25591; assay: MIC against mycoplasma in vitro; assay type: cell-based; settings: 144 h
M. dispar NCTC 10125 = assay: MIC against mycoplasma in vitro; assay type: cell-based; settings: 144 h
M. pneumoniae ATCC 15492 = assay: MIC against mycoplasma in vitro; assay type: cell-based; settings: Mycoplasmoides pneumoniae, ATCC15492, 144 h
E. coli ESS = assay: MIC against human bacteria in vitro; assay type: cell-based; settings: Escherichia coli; E. coli ESS; 5% chocolated horse blood agar, 18 hours; read-out: MIC
[6] = test system: Pasteurella multocida 1633; assay: MIC against human bacteria in vitro; assay type: cell-based; settings: Pasteurella multocida 1633; 5% chocolated horse blood agar, 18 hours; read-out: MIC
[7] = test system: Haemophilus influenzae Wy21; assay: MIC against human bacteria in vitro; assay type: cell-based; settings: Haemophilus influenzae Wy21; 5% chocolated horse blood agar, 18 hours; read-out: MIC
Bacillus subtilis 6633 = assay: MIC against human bacteria in vitro; assay type: cell-based; settings: Bacillus subtilis 6633; 5% chocolated horse blood agar, 18 hours; read-out: MIC
[8] = test system: Corynebacterium xerosis 9755; assay: MIC against human bacteria in vitro; assay type: cell-based; settings: Corynebacterium xerosis 9755; 5% chocolated horse blood agar, 18 hours; read-out: MIC
Sarcina lutea 8340 = assay: MIC against human bacteria in vitro; assay type: cell-based; settings: Micrococcus luteus; Sarcina lutea 8340; 5% chocolated horse blood agar, 18 hours; read-out: MIC
Staph. aureus Oxford [9] = assay: MIC against human bacteria in vitro; assay type: cell-based; settings: Staphylococcus aureus; Staph. aureus Oxford; 5% chocolated horse blood agar, 18 hours; read-out: MIC
Staph. aureus Russell = assay: MIC against human bacteria in vitro; assay type: cell-based; settings: Staphylococcus aureus; Staph. aureus Russell; 5% chocolated horse blood agar, 18 hours; read-out: MIC
Staph. aureus W2827 = assay: MIC against human bacteria in vitro; assay type: cell-based; settings: Staphylococcus aureus; Staph. aureus W2827; 5% chocolated horse blood agar, 18 hours; read-out: MIC
Strep. agalactiae 2788-B = assay: MIC against human bacteria in vitro; assay type: cell-based; settings: Streptococcus agalactiae; Strep. agalactiae 2788-B; 5% chocolated horse blood agar, 18 hours; read-out: MIC
S. dublin S7 = assay: MIC against veterinary bacteria in vitro; settings: Salmonella enterica, S7, 18 h
Protocol: (§1) The activity of the compounds of the Examples against various veterinarily important bacteria, was assayed in vitro using two-fold serial dilutions in Diagnostic Sensitivity Test Agar inoculated with 10^4 organisms.

Bord. bronchiseptica B08 = assay: MIC against veterinary bacteria in vitro; settings: Bordetella bronchiseptica, B08, 18 h
Protocol: as §1

Past. haemolytica PA5 = assay: MIC against veterinary bacteria in vitro; settings: Mannheimia haemolytica, PA5, 18 h
Protocol: as §1

[10] = test system: Erysipelothrix rhusiopathiae NCTC 8163; assay: MIC against veterinary bacteria in vitro; settings: Erysipelothrix rhusiopathiae, NCTC8163, 18 h
Protocol: as §1

[11] = test system: Corynebacterium pyogenes CY1; assay: MIC against veterinary bacteria in vitro; settings: CY1, 18 h
Protocol: as §1

[12] = test system: Staph. aureus B4 (pen. resistant); assay: MIC against veterinary bacteria in vitro; settings: Staphylococcus aureus, 18 h
Protocol: as §1

Staph. aureus Oxford [13] = assay: MIC against veterinary bacteria in vitro; settings: Staphylococcus aureus, 18 h
Protocol: as §1

[14] = test system: Strep. suis (group D) SPS11; assay: MIC against veterinary bacteria in vitro; settings: Streptococcus suis, 18 h
Protocol: as §1

Strep. agalactiae SPA1 = assay: MIC against veterinary bacteria in vitro; settings: Streptococcus agalactiae, SPA1, 18 h
Protocol: as §1

Past. multocida PA1 = assay: MIC against veterinary bacteria in vitro; settings: Pasteurella multocida, PA1, 18 h
Protocol: as §1

Past. multocida PA2 = assay: MIC against veterinary bacteria in vitro; settings: Pasteurella multocida, PA2, 18 h
Protocol: as §1

SMILES: C/C(=C\c1ncc(CCCCCCCCO)o1)C[C@@H]1OC[C@H](C[C@@H]2O[C@H]2[C@@H](C)[C@H](C)O)[C@@H](O)[C@H]1O [Example 19, 5-(8-Hydroxyoctyl)-2-(1-normon-2-yl) oxazole A]
- MIC (M. suipneumoniae JF 435): 2.5 µg/mL (≈ 5.04 µM)
- MIC (M. suipneumoniae HK(2)): 2.5 µg/mL (≈ 5.04 µM)
- MIC ([1]; M. suipneumoniae J2206/183^b, 6 days, 37° C., read-out: MIC): 5 µg/mL (≈ 10.1 µM)
- MIC [2]: 0.25 µg/mL (≈ 0.504 µM)
- MIC (M. suipneumoniae LABER): 1 µg/mL (≈ 2.02 µM)
- MIC (M. suipneumoniae UCD 1): 2.5 µg/mL (≈ 5.04 µM)
- MIC [3]: 1 µg/mL (≈ 2.02 µM)
- MIC ([4]; M. suipneumoniae NCTC 10110, 6 days, 37° C., read-out: MIC): 5 µg/mL (≈ 10.1 µM)
- MIC (M. hyorhinis ATCC 23234): 1 µg/mL (≈ 2.02 µM)
- MIC (M. hyorhinis ATCC 25021): 1 µg/mL (≈ 2.02 µM)
- MIC ([5]; M. hyosynoviae ATCC 25591, 6 days, 37° C., read-out: MIC): 0.5 µg/mL (≈ 1.01 µM)
- MIC (M. dispar NCTC 10125; M. dispar NCTC 10125, 6 days, 37° C., read-out: MIC): 0.5 µg/mL (≈ 1.01 µM)
- MIC (M. pneumoniae ATCC 15492): 1 µg/mL (≈ 2.02 µM)
- MIC (E. coli ESS): 16 µg/mL (≈ 32.3 µM)
- MIC [6]: 32 µg/mL (≈ 64.6 µM)
- MIC [7]: 4 µg/mL (≈ 8.07 µM)
- MIC (Bacillus subtilis 6633): 4 µg/mL (≈ 8.07 µM)
- MIC [8]: 128 µg/mL (≈ 258 µM)
- MIC (Sarcina lutea 8340): 128 µg/mL (≈ 258 µM)
- MIC (Staph. aureus Oxford [9]): 4 µg/mL (≈ 8.07 µM)
- MIC (Staph. aureus Russell): 4 µg/mL (≈ 8.07 µM)
- MIC (Staph. aureus W2827): 4 µg/mL (≈ 8.07 µM)
- MIC (Strep. agalactiae 2788-B): 16 µg/mL (≈ 32.3 µM)
- MIC (S. dublin S7): > 80 µg/mL
- MIC (Bord. bronchiseptica B08): > 80 µg/mL
- MIC (Past. haemolytica PA5): > 80 µg/mL
- MIC [10]: > 80 µg/mL
- MIC [11]: > 80 µg/mL
- MIC [12]: 1.25 µg/mL (≈ 2.52 µM)
- MIC (Staph. aureus Oxford [13]): 2.5 µg/mL (≈ 5.04 µM)
- MIC [14]: 80 µg/mL (≈ 161 µM)
- MIC (Strep. agalactiae SPA1): 10 µg/mL (≈ 20.2 µM)

SMILES: C/C(=C\c1ncc(-c2ccc(S(=O)(=O)N(C)C)cc2)o1)C[C@@H]1OC[C@H](C[C@@H]2O[C@H]2[C@@H](C)[C@H](C)O)[C@@H](O)[C@H]1O [Example 24, 5-p-Dimethylaminosulphonylphenyl-2-(1-normon-2-yl)oxazole A]
- MIC (M. suipneumoniae JF 435): 0.25 µg/mL (≈ 0.454 µM)
- MIC (M. suipneumoniae HK(2)): 0.25 µg/mL (≈ 0.454 µM)
- MIC [1]: 0.25 µg/mL (≈ 0.454 µM)
- MIC ([2]; M. suipneumoniae PW/C/210, 6 days, 37° C., read-out: MIC): 0.1 µg/mL (≈ 0.182 µM)
- MIC (M. suipneumoniae UCD 1): 0.25 µg/mL (≈ 0.454 µM)
- MIC [3]: 0.1 µg/mL (≈ 0.182 µM)
- MIC [4]: 0.25 µg/mL (≈ 0.454 µM)
- MIC (M. hyorhinis ATCC 23234): 0.1 µg/mL (≈ 0.182 µM)
- MIC (M. hyorhinis ATCC 25021): 0.1 µg/mL (≈ 0.182 µM)
- MIC [5]: 0.25 µg/mL (≈ 0.454 µM)
- MIC (M. dispar NCTC 10125): 0.1 µg/mL (≈ 0.182 µM)
- MIC (M. pneumoniae ATCC 15492; M. pneumoniae ATCC 15492, 6 days, 37° C., read-out: MIC): 0.5 µg/mL (≈ 0.908 µM)
- MIC (E. coli ESS): 4 µg/mL (≈ 7.26 µM)
- MIC [6]: 16 µg/mL (≈ 29.1 µM)
- MIC [7]: 4 µg/mL (≈ 7.26 µM)
- MIC (Bacillus subtilis 6633): 4 µg/mL (≈ 7.26 µM)
- MIC [8]: > 128 µg/mL
- MIC (Sarcina lutea 8340): > 128 µg/mL
- MIC (Staph. aureus Oxford [9]): 4 µg/mL (≈ 7.26 µM)
- MIC (Staph. aureus Russell): 4 µg/mL (≈ 7.26 µM)
- MIC (Staph. aureus W2827): 4 µg/mL (≈ 7.26 µM)
- MIC (Strep. agalactiae 2788-B): 2 µg/mL (≈ 3.63 µM)
- MIC (S. dublin S7): > 80 µg/mL
- MIC (Bord. bronchiseptica B08): 80 µg/mL (≈ 145 µM)
- MIC (Past. multocida PA1): 5 µg/mL (≈ 9.08 µM)
- MIC (Past. multocida PA2): 2.5 µg/mL (≈ 4.54 µM)
- MIC (Past. haemolytica PA5): 40 µg/mL (≈ 72.6 µM)
- MIC [10]: 40 µg/mL (≈ 72.6 µM)
- MIC [11]: 80 µg/mL (≈ 145 µM)
- MIC [12]: 1.25 µg/mL (≈ 2.27 µM)
- MIC (Staph. aureus Oxford [13]): 1.25 µg/mL (≈ 2.27 µM)
- MIC [14]: 2.5 µg/mL (≈ 4.54 µM)
- MIC (Strep. agalactiae SPA1): 1.25 µg/mL (≈ 2.27 µM)
